Key:
Assay in all cases: drug sensitivity score (DSS) from 5-dose viability curve (DSS (area-based score, 0 = no response)); higher = more sensitive (stronger viability inhibition); extreme values may be limits of the assay
[1] = test system: MDCK wild-type - doxycycline; conditions: doxycycline: none; 72 h
Outline: (§1)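 Parental MDCK cells without doxycycline were dispensed at 2000 cells/well onto pre-spotted 384-well plates. The plates held an oncology library of 528 drugs at five doses (1-10,000 nM) and were incubated 72 h at 37 °C. Viability was read as CellTiter-Glo luminescence and scaled per plate between vehicle and positive controls. Drug sensitivity scores came from dose-response curve fits in the Breeze pipeline.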

[2] = test system: MDCK p60AmotL2-inducible + doxycycline (p60AmotL2 expressing); conditions: doxycycline: 10 ng/mL; 72 h
Outline: as §1, with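 “and MDCK cells with doxycycline-inducible p60AmotL2, both given” for “without”, “doxycycline at 10 ng/mL in the medium before plating,” for “doxycycline”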

[3] = test system: MDCK wild-type + doxycycline; conditions: doxycycline: 10 ng/mL; 72 h
Outline: as §1, with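 “and MDCK cells with doxycycline-inducible p60AmotL2, both given” for “without”, “doxycycline at 10 ng/mL in the medium before plating,” for “doxycycline”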

Row | SMILES | drug sensitivity score [1] | drug sensitivity score [2] | drug sensitivity score [3]
1 | CC(C)(C)C[C@@H]1N[C@@H](C(=O)N[C@H]2CC[C@H](O)CC2)[C@H](c2cccc(Cl)c2F)[C@]12C(=O)Nc1cc(Cl)ccc12 | 2.9 | 7.2 | 4.7
2 | CC(C)(C)c1cc(NC(=O)Nc2ccc(Oc3ccnc4[nH]c(=O)cnc34)cc2F)n(-c2ccccc2)n1 | 4.9 | 7 | 5.1
3 | CC(C)Oc1ccc(C(=O)N[C@H](CNC(=O)CN(C)C)Cc2ccc(-c3cn4cccc([C@H](C)O)c4n3)cc2)cc1Cl | 10.7 | 15.8 | 12.8
4 | CCOc1ccn(-c2ccc(F)cc2)c(=O)c1C(=O)Nc1ccc(Oc2ccnc(N)c2Cl)c(F)c1 | 0 | 0 | 0
5 | CC[C@@H]1[C@H](F)C(=O)N[C@@H]1COc1nccc2cc(C(N)=O)c(OC)cc12 | 0 | 0.2 | 0.8
6 | CCc1cncnc1N1CCN(Cc2nc3ccc(C(F)(F)F)cc3[nH]2)CC1 | 0 | 0 | 0
7 | CCn1c(-c2nonc2N)nc2c(C#CC(C)(C)O)ncc(OC[C@H]3CCCNC3)c21 | 0 | 0.2 | 0
8 | CCn1c(-c2nonc2N)nc2cnc(Oc3cccc(NC(=O)c4ccc(OCCN5CCOCC5)cc4)c3)cc21 | 0.8 | 4 | 2.6
9 | CCn1cc(-c2ccnc3[nH]c(-c4cccc(CN(C)C)c4)cc23)c(-c2ccc(NC(=O)N(C)C)cc2)n1 | 0.4 | 7.1 | 1.9
10 | CN(C)CC#Cc1ccc(OCCCc2sc(N3CCc4cccc(C(=O)Nc5nc6ccccc6s5)c4C3)nc2C(=O)O)c(F)c1 | 0 | 0 | 0
11 | CN(c1ncccc1CNc1nc(Nc2ccc3c(c2)CC(=O)N3)ncc1C(F)(F)F)S(C)(=O)=O | 4.4 | 6 | 5.8
12 | CNC(=O)c1ccc(C)c(-n2c(C)cc(OCc3ccc(F)cc3F)c(Br)c2=O)c1 | 0 | 0 | 0
13 | CNC(=O)c1ccccc1Nc1nc(Nc2ccc3c(c2OC)CCC[C@H](N2CCN(CCO)CC2)C3)ncc1Cl | 6.8 | 8.8 | 6.2
14 | CNS(=O)(=O)Nc1nccc(Cc2c(C)c3ccc(Oc4ncccn4)cc3oc2=O)c1F | 0 | 2.3 | 0.5
15 | CNc1nc(-c2ccc3c(N)n[nH]c3c2)cc(N2C[C@@H](C(=O)NC3CCCCC3)CC[C@H]2C)n1 | 0 | 0 | 0
16 | CNc1ncc2cc(-c3cc(NC(=O)NCCC(C)(C)C)c(F)cc3C)c(C)nc2n1 | 2.8 | 9 | 5.2
17 | CONC(=O)c1ccccc1Nc1cc(Nc2cc(C)nn2C(C)C)ncc1Cl | 0 | 1.2 | 0
18 | CO[C@@H](C)Cn1c(=O)n(C)c2cnc3ccc(-c4cncc(C(C)(C)O)c4)cc3c21 | 8.2 | 12.8 | 9.1
19 | COc1cc2ncnc(Oc3cccc(NC(=O)Nc4cc(C(C)(C)C(F)(F)F)on4)c3)c2cc1OC | 0 | 0 | 0
20 | COc1ccc(Cn2ccc3ccc(C(=O)NO)cc32)cc1 | 0 | 2.1 | 3.1
21 | COc1ccc2[nH]cc(/C=C3\C(=O)Nc4ccc(NC(=O)CCN5CCCCC5)cc43)c2c1 | 6 | 9.4 | 7.3
22 | C[C@@H](Oc1cc(-n2cnc3ccc(CN4CCN(C)CC4)cc32)sc1C(N)=O)c1ccccc1C(F)(F)F | 29.5 | 32.1 | 35.1
23 | C[C@@H](Oc1ccc2[nH]nc(/C=C/c3cnn(CCO)c3)c2c1)c1c(Cl)cncc1Cl | 7.1 | 9.3 | 7.2
24 | C[C@@H]1CN(CC(=O)Nc2ccc3c(c2)Cc2cccc(-c4cc(=O)cc(N5CCOCC5)o4)c2S3)C[C@H](C)O1 | 2.2 | 2.4 | 2
25 | C[C@@]1(C(=O)Nc2ccc(F)nc2)CCCN1c1nc(Nc2cc(C3CC3)n[nH]2)c2cccn2n1 | 0 | 12.6 | 8.5

Row | SMILES | drug sensitivity score [1] | drug sensitivity score [2] | drug sensitivity score [3]
26 | C[C@H]1C[C@@H](n2c(Nc3ccc(OC(F)(F)F)cc3)nc3cc(CCC(=O)O)ccc32)CC(C)(C)C1 | 0 | 0 | 0
27 | C[C@H]1Oc2cc(cnc2N)-c2c(nn(C)c2C#N)CN(C)C(=O)c2ccc(F)cc21 | 0.1 | 2.1 | 0
28 | Cc1c(-c2c(-c3ccc(F)o3)sc3ncnc(O[C@H](Cc4ccccc4OCc4ccnn4CC(F)(F)F)C(=O)O)c23)ccc(OCCN2CCN(C)CC2)c1Cl | 0 | 0 | 0
29 | Cc1c(-c2ccc(N3CCc4cccc(C(=O)Nc5nc6ccccc6s5)c4C3)nc2C(=O)O)cnn1CC12CC3CC(CC(C3)C1)C2 | 0 | 0 | 0
30 | Cc1c(Cn2c(C)nc3c(C(=O)O)cc(N4CCOCC4)cc32)cccc1C(F)(F)F | 0 | 0 | 0
31 | Cc1ccc(C(=O)N(CCCN)[C@@H](c2oc3cc(Cl)ccc3c(=O)c2Cc2ccccc2)C(C)C)cc1 | 15.3 | 8.8 | 5.8
32 | Cc1cccc(CC(=O)N2CCc3c2ccc(-c2cn(C)c4ncnc(N)c24)c3F)n1 | 0 | 0 | 0
33 | Cc1nc(Nc2n[nH]c3c2CN(C(=O)N[C@H](CN(C)C)c2ccccc2)C3(C)C)c2sccc2n1 | 12.4 | 22.1 | 18
34 | Cc1ncc(Cl)cc1NCc1ccc(C(=O)N[C@@H](CC2CCCC2)C(=O)NC2CC2)s1 | 0 | 0 | 0
35 | Cc1nn(C)c(COc2ccc(N3CCN(S(=O)(=O)N(C)C)CC3)cc2)c1-c1cccc2c(CCCOc3cccc4ccccc34)c(C(=O)O)n(CCN3CCOCC3)c12 | 5.1 | 5.3 | 5.3
36 | Cn1cc(-c2ccc(F)c(C(F)(F)F)c2)nc1C1CCN(c2ncnc3[nH]ncc23)CC1 | 0 | 3 | 0
37 | Cn1cc(C2=Nc3cc(NC(=O)C(N)C4CCCCC4)cc4c3C2=CNNC4=O)cn1 (configuration not stated) | 0 | 1.1 | 0
38 | N#Cc1ccc(COC[C@H]2O[C@@H](n3c(NCc4ccc(Cl)c(Cl)c4)nc4c(N)ncnc43)[C@H](O)[C@@H]2O)cc1 | 0 | 0 | 0
39 | NCC(=O)Nc1ccc(-n2nc(C(F)(F)F)cc2-c2ccc3c(ccc4ccccc43)c2)cc1 | 0 | 0 | 0
40 | NC[C@@](O)(c1ccc(Cl)cc1)c1ccc(-c2cn[nH]c2)cc1 | 0 | 0 | 0
41 | Nc1nccc(-c2c(-c3ccc(F)cc3)ncn2C2CCCCC2)n1 | 0.7 | 2.3 | 0.5
42 | Nc1ncnc2c1c(COc1cccc(Cl)c1)nn2C1CCOCC1 | 0 | 0.5 | 0
43 | O=C(NC[C@H](O)CN1CCc2ccccc2C1)c1cc(NC2COC2)ncn1 | 0 | 0.2 | 0
44 | O=C(NCc1ccncc1)C12CC3CC(C1)CC(c1ccc(Cl)cc1)(C3)C2 | 2.4 | 6.4 | 4.3
45 | O=C(NOC[C@H](O)CO)c1ccc(F)c(F)c1Nc1ccc(I)cc1F | 2.3 | 11.9 | 3.9
46 | O=C(Nc1ccc2[nH]nc(-c3ccncc3)c2c1)[C@@H]1CCN(CC(=O)N2CCN(c3ccc(-c4ncccn4)cc3)CC2)C1 | 3.5 | 10.7 | 6.7
47 | O=C(O)c1ccc(-c2c[nH]c3ncc(-c4ccccc4)cc23)cc1C1CCCC1 | 0 | 0.8 | 1
48 | O=C(O)c1ccc(CN2CCC(CN[C@@H]3C[C@H]3c3ccccc3)CC2)cc1 | 0 | 0 | 0
49 | O=C1Cc2cc(C(=O)NC3C[C@H]4CC[C@@H](C3)N4S(=O)(=O)CC3CCN(CCCC(F)(F)F)CC3)c(Cl)cc2N1 (some centres not stated) | 0 | 0 | 0
